Laboratory results as given in publication PMC9425435, “Antiviral Profiling of C-18- or C-19-Functionalized Semisynthetic Abietane Diterpenoids” (Journal of Natural Products, 2022).

Experiments:
[1] = test system: ZIKV (Zika virus); assay: Plaque reduction assay (PFU), ZIKV in Vero E6; format: cell-based
[2] = test system: DENV-2 (Dengue virus type 2); assay: Plaque reduction assay (PFU), DENV-2 in BHK21; format: cell-based; settings: DENV-2, BHK21, PFU/well 150 ± 25
[3] = test system: CHIKV (Chikungunya virus); assay: End-point titration technique (EPTT), viral titer reduction factor, CHIKV in Vero E6; format: cell-based; settings: Vero E6, 10TCID50, EPTT
[4] = test system: ZIKV/Col; assay: Quantification of infectious viral particles by plaque assay, ZIKV/Col post-treatment; format: cell-based, Zika virus; settings: for percentage of infection (infectious viral particles, plaque assay): ZIKV/Col, Vero cells, post-treated, vs untreated control 100%
[5] = test system: ZIKV/Col; assay: Quantification of intracellular viral genome by qRT-PCR, ZIKV/Col; format: cell-based, Zika virus
[6] = test system: ZIKV/Col; assay: Intracellular quantification of viral protein by cell-ELISA, ZIKV/Col; format: cell-based, Zika virus; settings: all concentrations evaluated (3.1-25.0 μg/mL)
[7] = test system: Colombian Zika virus strains; assay: Anti-Zika EC50 summarised over Colombian strains (abstract); format: cell-based; settings: read-out: EC50 against Colombian Zika virus strains
[8] = test system: DENV-2; settings: postinfection stages; cited from earlier work
[9] = test system: herpes virus type 2 (HHV-2); settings: cited from earlier work
[10] = MTT cytotoxicity assay (CC50); settings: chlorocebus sabaeus
[11] = test system: Vero-E6 cells; assay: Cytotoxicity CC100 in Vero-E6 cells (72 h); settings: Vero-E6 cells, 72h
[12] = test system: BHK-21 cells; assay: Cytotoxicity CC100 in BHK-21 cells (6 days)
[13] = test system: endemic chikungunya virus of Colombian origin; assay: Post-infection stage evaluation assay (plaque), CHIKV
[14] = test system: Zika_459148 virus strain; assay: Post-infection stage evaluation assay (plaque), Zika_459148
[15] = test system: ZIKV strain (COL345Si); assay: Post-infection stage evaluation assay (plaque), ZIKV COL345Si

## CC(C)c1cc2c(cc1O)[C@@]1(C)CCC[C@@](C)(CN3C(=O)c4ccccc4C3=O)[C@@H]1CC2 [Compound 6, 18-(phthalimid-2-yl)ferruginol]
[1]; ZIKV PFU assay, conversion of 3.1 μg/mL
  Nontoxic concentration that showed a higher viral reduction factor, in μM: ca. 7.2 μM
[1]; ZIKV, Vero E6, PFU/well 150 ± 25
  % inhibition (PFU): 52 ± 13%
[2]
  % inhibition (PFU): 91 ± 7%
[3]
  Rf (reduction factor of the viral titer): 10^2
[4]; 3.1 μg/mL
  percentage of infection (infectious viral particles, plaque assay): 62.7%
[4]; 6.2 μg/mL
  percentage of infection (infectious viral particles, plaque assay): 31.3%
[4]; 12.5 μg/mL
  percentage of infection (infectious viral particles, plaque assay): 20.9%
[4]; 25.0 μg/mL
  percentage of infection (infectious viral particles, plaque assay): 7.0%
[4]; Zika virus, read-out: EC50 ZIKV/Col
  EC50: 9.9 µM
[5]; 3.1 μg/mL
  number of genome copies/mL, percentage of untreated control: 125.9%
[5]; cultures treated with 6.2, 12.5, and 25.0 μg/mL
  replication of viral genome: significantly inhibited
[6]
  viral protein production, percentages of infection: below 50%
[7]
  EC50: 5 to 10 µM
[8]
  EC50: 1.4 µM
[9]
  EC50: 19.2 µM
[10]
  CC50 at 72 h: 192 µM
  CC50 at 144 h: 80.8 µM
[11]
  CC100 (100% cytotoxic concentration): >50 µg/mL
[12]
  CC100 (100% cytotoxic concentration): >50 µg/mL
[13]; CHIKV
  SI (CC50/EC50): 19.6
[13]; Chikungunya virus, read-out: EC50 chikungunya virus
  EC50: 9.8 µM
[14]; Zika virus, Vero C1008, 72 h, read-out: EC50 anti-Zika_459148 virus
  EC50: 6.3 ± 2.7 µM
[14]; Zika_459148, 72 h
  SI (CC50/EC50): 30
[15]; ZIKV COL345Si, 6 days
  SI (CC50/EC50): 15
[15]; Zika virus, 144 h, read-out: EC50 ZIKV strain COL345Si
  EC50: 5.3 ± 2.9 µM
